This is an account of results in PMC5059467, “Anti-tubulin drugs conjugated to anti-ErbB antibodies selectively radiosensitize” (Nature Communications, 2016).

Square brackets hold non-standard residues; d marks the D form. Peptide text beside a SMILES is read from it. * marks the point of attachment. Dolaproine = CO[C@@H]([C@@H]1CCCN1)[C@@H](C)C(=O)O; Dil = CC[C@H](C)[C@H](NC)[C@@H](CC(=O)O)OC; X1 = C[C@@H](N*)[C@@H](O)c1ccccc1; NMeV = CN[C@H](C(=O)O)C(C)C

Data set [1] relates to CAL-27 cells. Kind of data set: Clonogenic cell survival (SF2), CAL-27 cells. It counts as cell-based, human. As to conditions: compared with vehicle. The method, then:
Following IR, cells were counted, re-plated at varying cell numbers in drug-free media. […] Surviving fraction at 2 Gy (SF2) was calculated as the fraction of cells surviving 2 Gy compared with non-irradiated cells.

The test system of data set [2] is OE19 cells. Kind of data set: Cell cycle profile (propidium iodide, flow cytometry), OE19 cells. It counts as cell-based, human. As to conditions: overnight treatment. The method, then: (§1) Cells were treated with RNAse, stained with propidium iodide (PI) and analysed by FACS using FloJo software.
Background: In flow cytometry, cells or beads pass a laser one at a time.

Data set [3] relates to cell lines irrespective of HER2 expression. Put plainly: Alamar blue cell viability, cell lines irrespective of HER2 expression. It counts as cell-based, human. Particulars: fairly consistent across cell lines irrespective of HER2 expression; 72–96 h.
For data set [4], the system named is HCT116 cells. Put plainly: Cell cycle profile (propidium iodide, flow cytometry), HCT116 cells. It counts as cell-based, human. As to conditions: overnight treatment. The procedure:
as §1

The subject of data set [5] is HER2+ and HER2− cell lines. Put plainly: Neutral comet assay after IR, HER2+ and HER2− cell lines. It counts as cell-based, human. As to conditions: 20 nM overnight, 2 Gy. The method, then:
(§2) Cells were collected 15 min post IR, suspended in agarose gel and lysed per assay directions (Trevigen). Samples underwent electrophoresis under neutral conditions and were then stained with Sybr Green. Comet tails were counted in multiple fields (>60 cells per sample) and analysed using CometScore (TriTek Corp). Comet tail length was normalized to vehicle-treated, non-irradiated cells.

In data set [6] the test system is HCT116 cells. Kind of data set: Clonogenic cell survival (SF2), HCT116 cells. The class given is cell-based, human. Particulars: 5 nM overnight then 2 Gy, compared with vehicle. The procedure: Following IR, cells were counted, re-plated at varying cell numbers in drug-free media. 10–14 days after initial seeding formed colonies were methanol fixed, stained with crystal violet and counted. Surviving fraction at 2 Gy (SF2) was calculated as the fraction of cells surviving 2 Gy compared with non-irradiated cells.

Data set [7] deals with OE19 cells. Put plainly: Neutral comet assay after IR, OE19 cells. The class given is cell-based, human. The procedure:
as §2

The next data set deals with OE19 tumour xenografts. Kind of data set: OE19 tumour xenograft growth with or without IR. As to conditions: for Tumour doubling time in days (mean, 95% CI): OE19 (HER2+). It counts as in vivo, mice. The procedure: (§3) CAL-27, OE19, NCI N87 and HCT116 tumour xenografts were established and tumour growth was measured with digital calipers. Tumour volume was measured blindly to treatment group and calculated using the formula as ½ × length × width^2. Mice were randomized into groups once the average tumour volume reached >100 mm^3. Mice were assigned to indicated groups in ‘Results'. […] For irradiated mice, the tumour-bearing hindlimbs were focally irradiated while the remainder of the mouse was shielded from IR with custom designed lead blocking >95% of the dose as verified by dosimeters placed on the mouse. […] To prevent unnecessary morbidity, mice were killed if tumour length exceeded 15 mm per protocol. Nonlinear regression least squares fit was used to calculate tumour volume doubling times. […] To minimize the number of mice used, tumours were grown in the bilateral flanks.

The test system of another data set is HCT116 tumour xenografts. Kind of data set: HCT116 tumour xenograft growth with or without IR. Particulars: for Tumour doubling time in days (mean, 95% CI): HCT116 (HER2−). The class given is in vivo, mice. The procedure: as §3
In data set [8] the test system is NCI N87 tumour xenografts. Put plainly: NCI N87 tumour xenograft growth with or without IR. It counts as in vivo, mice. Particulars: for Tumour doubling time in days (mean, 95% CI): NCI N87 (HER2+). The method, then: as §3
Data set [9] relates to CAL-27 cells. The method, then: (§4) Alamar Blue (resazurin) was added to the cells and allowed to incubate for 2–4 h at 37 °C. Plates were analysed using a plate reader with fluorescence measured at 560 nm.
The next data set deals with NCI N87 cells. Particulars: read-out: IC50 (cell viability); HER2+ NCI N87 (gastric cancer); 72–96 h. The method, then: as §4
Data set [10] has as its system HCT116 cells. As to conditions: read-out: IC50 (cell viability); HER2- HCT116; 72–96 h. The method, then:
as §4

The subject of data set [11] is OE19 cells. Put plainly: Alamar blue cell viability, OE19 cells. As to conditions: HER2+ OE19; 72–96 h. It counts as cell-based, human.
The subject of another data set is OE19 tumours. Put plainly: Immunohistochemistry of OE19 tumour xenografts (pS10 Histone H3, cleaved caspase 3). It counts as in vivo, mice. Particulars: tumours harvested 48 h after drug.
On the set-up of data set [12]: method as in PMID 25681274. Particulars: cited from earlier work.
Another data set deals with CALU3 cells. Put plainly: Neutral comet assay after IR, CALU3 cells. The class given is cell-based, human. As to conditions: 2 nM overnight, 6 Gy, compared with vehicle or 20 nM antibody. The procedure: as §2
The next data set deals with CAL-27 tumour xenografts. Put plainly: CAL-27 tumour xenograft growth with or without IR. The class given is in vivo, mice. As to conditions: Fig 4f, 0.5 nmol cetuximab or C-MMAE, 2 nmol free MMAE on day 0. The method, then: as §3
For data set [13], the system named is CAL-27 cells. Put plainly: Cell cycle profile (propidium iodide, flow cytometry), CAL-27 cells. The class given is cell-based, human. As to conditions: overnight treatment. The method, then: as §1
The mark [14] stands for this setting: 0.25 nmol (∼1.9 mg kg^−1) day 0, 2.5 Gy days 1, 2 and 3.
The mark [15] stands for this setting: 0.25 nmol T-DM1 i.v. day 0, +IR 2.5 Gy on days 1, 2 and 3, extrapolated.

Procedure for OE19 tumours: Tissue sections were cut from blocks of formalin-fixed paraffin embedded xenografts. Four micron thick tissue sections were stained with antibodies to phospho-histone H3 (pH3, Abcam, catalogue number ab32107) and cleaved caspase-3 (ClC3, Cell Signaling Technology, catalogue number 9661) and used at dilutions of 1:300 and 1:900, respectively. Slides were stained on a Ventana Discovery Ultra (Ventana Medical Systems, Tucson, AZ, USA). Antigen retrieval was performed using CC1 for 24–40 min at 95 °C. The primary antibodies were incubated on the sections for 1 h at 37 °C. Primary antibodies were visualized used DAB as a chromagen using the UltraMap system (Ventana Medical systems) followed by hematoxylin as a counterstain. Slides were rinsed, dehydrated through alcohol and xylene and coverslipped.
Immunostained slides were scanned using an Axio Scan.Z1 (Zeiss; Oberkochen, Germany). […] Whole-slide images were imported into Definiens Software for quantitative analysis (Definiens; Munich, Germany). […] For analysis of pH3 (a nuclear stain), the total number of nuclei and the total number of nuclei showing DAB staining (pH3 positive cells) were recorded within each ROI. The percent of positive nuclei was then calculated for each sample. For analysis of ClC3 (a cytoplasmic stain), mean DAB chromagen intensity was measured and calculated within the ROI for each sample.

As to `COc1cc2cc(c1Cl)N(C)C(=O)C[C@H](OC(=O)[C@H](C)N(C)C(=O)CCS)[C@]1(C)O[C@H]1[C@H](C)[C@@H]1C[C@@](O)(NC(=O)O1)[C@H](OC)/C=C/C=C(\C)C2` [mertansine], the “surviving fraction following 2 Gy (SF2)” value with CAL-27 cells [1] (5 nM mertansine overnight then 2 Gy) and with HCT116 cells [6] was “decreased further” throughout. In addition, the “cell cycle profile (G2/M)” value in the data set on OE19 cells [2] and with HCT116 cells [4] was “increased the accumulation” in each case. Besides, the IC50 (in general, the point on the concentration scale where inhibition reaches its midpoint) in [3] is about 0.01 µM. In data set [5], the “radiosensitization (IR induced DNA double-strand breaks, comet tail length)” value was “radiosensitized by increasing IR induced DNA double-strand breaks in both HER2+ and HER2− cell lines”.
For the molecule ado-trastuzumab emtansine [T-DM1], the “cell cycle profile (G2/M)” value in the data set on OE19 cells [2] is recorded as “blocked OE19 cells in G2/M”; with HCT116 cells [4] it was “resembled vehicle-treated cells”. Further, in the data set with OE19 cells [7] (2 nM T-DM1, irradiated OE19 (HER2+)), the “radiosensitization (comet tail length)” value is given as “radiosensitized”. Also, the “tumour regression with T-DM1 and IR” value (with OE19 tumour xenografts (setting [14]); in data set [8] (setting [14])) was “significantly prolonged tumour regression” throughout. Also, the “Tumour doubling time in days (mean, 95% CI)” value is listed as 66 (33+) days in the data set on OE19 tumour xenografts (setting [15]); 11 (8–17) days with OE19 tumour xenografts (0.25 nmol i.v. day 0, no IR); 7 (5–12) days with HCT116 tumour xenografts (0.25 nmol i.v. day 0, +IR 2.5 Gy on days 1, 2 and 3); 3 (2–5) days in the data set on HCT116 tumour xenografts (0.25 nmol i.v. day 0, no IR); 113 (82–179) days in data set [8] (setting [15]); 23 (21–25) days in data set [8] (0.25 nmol i.v. day 0, no IR). Also, the “slowing of tumour growth compared with control or trastuzumab” value in the data set with OE19 tumour xenografts (single dose of 1 nmol, by day 14) was “equally efficacious in slowing tumour growth”. In addition, the “radiosensitization (IR induced DNA double-strand breaks, comet tail length)” value in data set [5] is listed as “restricted radiosensitization of HER2+ cells”. Moreover, the “benefit of adding T-DM1 to IR” value with HCT116 tumour xenografts (HER2- HCT116, 0.25 nmol day 0, 2.5 Gy days 1, 2 and 3) was “no benefit of adding T-DM1 to IR”. Besides, the IC50 with CAL-27 cells [9] (read-out: IC50 (cell viability), HER2- CAL-27, 72–96 h) was over 0.1 µM; in the data set on NCI N87 cells, under 0.001 µM; in the data set with HCT116 cells [10], over 0.1 µM; in the data set with OE19 cells [11] it was under 0.001 µM. In the data set on OE19 tumours, the “cells in G2/M in tumours (pS10 Histone H3 IHC)” value is recorded as “increased the number of cells in radiosensitive G2/M phase”.
Consider `CC(=O)O[C@H]1C(=O)[C@@]2(C)[C@H]([C@H](OC(=O)c3ccccc3)[C@]3(O)C[C@H](OC(=O)[C@H](O)[C@@H](NC(=O)c4ccccc4)c4ccccc4)C(C)=C1C3(C)C)[C@]1(OC(C)=O)CO[C@@H]1C[C@@H]2O` [paclitaxel], for which the “cytotoxic potency, paclitaxel compared with T-DM1” value in the data set on CAL-27 cells [9] (HER2- CAL-27 cells, 96 hours) is “more potent than T-DM1”.
With `CC[C@H](C)[C@@H]([C@@H](CC(=O)N1CCC[C@H]1[C@H](OC)[C@@H](C)C(=O)N[C@H](C)[C@@H](O)c1ccccc1)OC)N(C)C(=O)[C@@H](NC(=O)[C@@H](NC)C(C)C)C(C)C` [MMAE, monomethyl auristatin E] (H-[NMeV]V[Dil][Dolaproine]-X1), the “surviving fraction following 2 Gy (SF2)” value with CAL-27 cells [1] (drug overnight then 2 Gy) was “decreased”. The “cell cycle profile (G2/M)” value in the data set with OE19 cells [2] and in the data set on CAL-27 cells [13] was “accumulating in G2/M” throughout. For the same molecule, in data set [12], the “concentration level effective as radiosensitizer” value was “single nM level”. The “effect on IR induced comet tail length” value in the data set with CALU3 cells was “increased comet tail length to a similar degree”; in the data set on OE19 cells [7] (2 nM overnight, 6 Gy, compared with vehicle, 20 nM antibody or 2 nM C-MMAE) it was “further increased comet tail length”. Also, in the data set on CAL-27 tumour xenografts (day 35, + IR 3 Gy on days 1 and 2), the “Mean Diff. Control vs. treatment + IR (Tukey's multiple comparisons, tumour volume)” value amounted to 246.7. For the same molecule, in the data set with CAL-27 tumour xenografts (day 35, no IR), the “Mean Diff. Control vs. treatment (Tukey's multiple comparisons, tumour volume)” value is 272.
